Source: ChEMBL document CHEMBL1201862, “PubChem BioAssay data set” (2004)
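Where inhibition never reached the appropriate level, the endpoint shown equals the highest concentration tested. Otherwise, values were interpolated linearly from a five-concentration, 48-hour dose response in 96-well plates. GI50 = concentration required for 50% inhibition of growth.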 Calls of active or inactive are those of the source. Rule as the data show it: active = GI50 up to about 1.1 µM and inactive = higher.

Legend:
Assay in all cases: DTP human tumour cell line panel, 48 h
SF-268 = system: SF-268
786-0 = system: 786-0
RPMI-8226 = system: RPMI-8226
EKVX = system: EKVX
SR = system: SR
K562 = system: K562
MDA-N = system: MDA-N
OVCAR-3 = system: OVCAR-3
SK-MEL-5 = system: SK-MEL-5
M14 = system: M14
HCC 2998 = system: HCC 2998
BT-549 = system: BT-549
OVCAR-8 = system: OVCAR-8
CAKI-1 = system: CAKI-1
HCT-116 = system: HCT-116
NCI-H460 = system: NCI-H460
IGROV-1 = system: IGROV-1
SF-295 = system: SF-295
CCRF-CEM = system: CCRF-CEM
LXFL 529 = system: LXFL 529
LOX IMVI = system: LOX IMVI
MOLT-4 = system: MOLT-4
HOP-92 = system: HOP-92
DMS-114 = system: DMS-114
HOP-18 = system: HOP-18
SW-620 = system: SW-620
MDA-MB-231 = system: MDA-MB-231
NCI-H226 = system: NCI-H226
UACC-257 = system: UACC-257
OVCAR-5 = system: OVCAR-5
SNB-19 = system: SNB-19
HL-60 = system: HL-60
SK-MEL-2 = system: SK-MEL-2
XF498 = system: XF498
OVCAR-4 = system: OVCAR-4
COLO 205 = system: COLO 205
HOP-62 = system: HOP-62
A549 = system: A549
RXF 393 = system: RXF 393
UACC-62 = system: UACC-62
DMS-273 = system: DMS-273
NCI-H522 = system: NCI-H522
ACHN = system: ACHN
DU-145 = system: DU-145
SK-OV-3 = system: SK-OV-3
NCI-H23 = system: NCI-H23
SF-539 = system: SF-539
MDA-MB-435 = system: MDA-MB-435
Malme-3M = system: Malme-3M
PC-3 = system: PC-3
U-251 = system: U-251
UO-31 = system: UO-31
KM-20L2 = system: KM-20L2
A498 = system: A498
SNB-75 = system: SNB-75
HT-29 = system: HT-29
SN12C = system: SN12C
SNB-78 = system: SNB-78
T47D = system: T47D
TK-10 = system: TK-10
KM12 = system: KM12
HCT-15 = system: HCT-15
SK-MEL-28 = system: SK-MEL-28
Hs-578T = system: Hs-578T
DLD-1 = system: DLD-1
MCF7 = system: MCF7
M19-MEL = system: M19-MEL
NCI/ADR-RES = system: NCI/ADR-RES

CC(=O)[C@]1(O)Cc2c(O)c3c(c(O)c2[C@@H](OC2CC(N)C(O)C(C)O2)C1)C(=O)c1c(OCc2ccccc2)cccc1C3=O (stereo partly drawn)
GI50 (SF-268): 1.75 µM (inactive) | GI50 (786-0): 1.08 µM (active) | GI50 (RPMI-8226): 1.14 µM (inactive) | GI50 (EKVX): 3.05 µM (inactive) | GI50 (SR): 0.0933 µM (active) | GI50 (K562): 0.738 µM (active) | GI50 (MDA-N): 1.58 µM (inactive) | GI50 (OVCAR-3): 2.06 µM (inactive) | GI50 (SK-MEL-5): 1.71 µM (inactive) | GI50 (M14): 1.49 µM (inactive) | GI50 (HCC 2998): 1.34 µM (inactive) | GI50 (BT-549): 3.76 µM (inactive) | GI50 (OVCAR-8): 1.48 µM (inactive) | GI50 (CAKI-1): 1.64 µM (inactive) | GI50 (HCT-116): 0.605 µM (active) | GI50 (NCI-H460): 0.14 µM (active) | GI50 (IGROV-1): 7.98 µM (inactive) | GI50 (SF-295): 1.23 µM (inactive) | GI50 (CCRF-CEM): 0.202 µM (active) | GI50 (LXFL 529): 1.14 µM (inactive) | GI50 (LOX IMVI): 0.604 µM (active) | GI50 (MOLT-4): 0.0741 µM (active) | GI50 (HOP-92): 3.18 µM (inactive) | GI50 (DMS-114): 1.36 µM (inactive) | GI50 (HOP-18): 1.71 µM (inactive) | GI50 (SW-620): 0.544 µM (active) | GI50 (MDA-MB-231): 1.92 µM (inactive) | GI50 (NCI-H226): 1.09 µM (active) | GI50 (UACC-257): 4.06 µM (inactive) | GI50 (OVCAR-5): 2.07 µM (inactive) | GI50 (SNB-19): 1.5 µM (inactive) | GI50 (HL-60): 0.132 µM (active) | GI50 (SK-MEL-2): 17.4 µM (inactive) | GI50 (XF498): 1.6 µM (inactive) | GI50 (OVCAR-4): 2.43 µM (inactive) | GI50 (COLO 205): 1.16 µM (inactive) | GI50 (HOP-62): 1.84 µM (inactive) | GI50 (A549): 0.75 µM (active) | GI50 (RXF 393): 2.63 µM (inactive) | GI50 (UACC-62): 1.73 µM (inactive) | GI50 (DMS-273): 0.302 µM (active) | GI50 (NCI-H522): 1.48 µM (inactive) | GI50 (ACHN): 0.946 µM (active) | GI50 (DU-145): 1.63 µM (inactive) | GI50 (SK-OV-3): 4.06 µM (inactive) | GI50 (NCI-H23): 1.64 µM (inactive) | GI50 (SF-539): 1.46 µM (inactive) | GI50 (MDA-MB-435): 1.43 µM (inactive) | GI50 (Malme-3M): 3.33 µM (inactive) | GI50 (PC-3): 1.26 µM (inactive) | GI50 (U-251): 1.07 µM (active) | GI50 (UO-31): 2.28 µM (inactive) | GI50 (KM-20L2): 1.15 µM (inactive) | GI50 (A498): 5.61 µM (inactive) | GI50 (SNB-75): 3.48 µM (inactive) | GI50 (HT-29): 1.51 µM (inactive) | GI50 (SN12C): 1.37 µM (inactive) | GI50 (SNB-78): 4.38 µM (inactive) | GI50 (T47D): 2.32 µM (inactive) | GI50 (TK-10): 9.75 µM (inactive) | GI50 (KM12): 1.41 µM (inactive) | GI50 (HCT-15): 1.39 µM | GI50 (SK-MEL-28): 1.54 µM (inactive) | GI50 (Hs-578T): 0.619 µM (active)

COc1cc(/C=C2/C(=O)N(C(=O)c3ccccc3O)N=C2C)cc(OC)c1OC
GI50 (SF-268): 8.59 µM (inactive) | GI50 (786-0): 2.25 µM (inactive) | GI50 (RPMI-8226): > 22.2 µM (inactive) | GI50 (EKVX): 5.5 µM (inactive) | GI50 (K562): 0.393 µM (active) | GI50 (MDA-N): 1.02 µM (active) | GI50 (OVCAR-3): 1.53 µM (inactive) | GI50 (SK-MEL-5): 2.88 µM (inactive) | GI50 (M14): 7.38 µM (inactive) | GI50 (HCC 2998): 11.6 µM (inactive) | GI50 (BT-549): 0.741 µM (active) | GI50 (DLD-1): 0.484 µM (active) | GI50 (OVCAR-8): 1.67 µM (inactive) | GI50 (MCF7): 0.753 µM (active) | GI50 (M19-MEL): 0.695 µM (active) | GI50 (HCT-116): 0.358 µM (active) | GI50 (NCI-H460): 1.43 µM (inactive) | GI50 (IGROV-1): 0.69 µM (active) | GI50 (SF-295): 1.16 µM (inactive) | GI50 (CCRF-CEM): 1.77 µM (inactive) | GI50 (LXFL 529): 0.555 µM (active) | GI50 (LOX IMVI): 2.09 µM (inactive) | GI50 (MOLT-4): 0.887 µM (active) | GI50 (HOP-92): 1.07 µM (active) | GI50 (DMS-114): 0.682 µM (active) | GI50 (SW-620): 6.22 µM (inactive) | GI50 (MDA-MB-231): 23.5 µM (inactive) | GI50 (NCI-H226): 6.21 µM (inactive) | GI50 (UACC-257): 4.9 µM (inactive) | GI50 (OVCAR-5): 11.7 µM (inactive) | GI50 (SNB-19): 1.44 µM (inactive) | GI50 (HL-60): 2.9 µM (inactive) | GI50 (SK-MEL-2): 1.44 µM (inactive) | GI50 (XF498): 1.9 µM (inactive) | GI50 (OVCAR-4): 2.73 µM (inactive) | GI50 (COLO 205): 34.4 µM (inactive) | GI50 (NCI/ADR-RES): 4.29 µM (inactive) | GI50 (HOP-62): 1.29 µM (inactive) | GI50 (A549): 0.439 µM (active) | GI50 (RXF 393): 0.192 µM (active) | GI50 (UACC-62): 0.405 µM (active) | GI50 (NCI-H522): 3.83 µM (inactive) | GI50 (ACHN): 0.92 µM (active) | GI50 (DU-145): 2.44 µM (inactive) | GI50 (SK-OV-3): 2.47 µM (inactive) | GI50 (NCI-H23): 0.653 µM (active) | GI50 (SF-539): 0.839 µM (active) | GI50 (MDA-MB-435): 0.863 µM (active) | GI50 (Malme-3M): 8.17 µM (inactive) | GI50 (PC-3): 6.93 µM (inactive) | GI50 (U-251): 1.2 µM (inactive) | GI50 (UO-31): 0.558 µM (active) | GI50 (KM-20L2): 45.7 µM (inactive) | GI50 (A498): 0.473 µM (active) | GI50 (SNB-75): 1.84 µM (inactive) | GI50 (HT-29): 34.4 µM (inactive) | GI50 (SN12C): 3.1 µM (inactive) | GI50 (SNB-78): 0.277 µM (active) | GI50 (T47D): 1.12 µM (active) | GI50 (TK-10): 9.79 µM (inactive) | GI50 (KM12): 0.455 µM (active) | GI50 (HCT-15): 3.17 µM | GI50 (SK-MEL-28): 53.7 µM (inactive) | GI50 (Hs-578T): 0.822 µM (active)
